# Test results taken from PubChem BioAssay (NCI).
#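 The concentration for 50% growth inhibition is given as GI50. At the TGI there is no net growth.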
# Columns and labels:
# Test in all cases: NCI-60 cell line screen, 384-well format
# [1] = tested on: UO-31 renal
# [2] = tested on: HCT-15 colon
# [3] = tested on: A549 NSCLC
# [4] = tested on: U251 glioblastoma
# [5] = tested on: RPMI-8226 leukemia
# [6] = tested on: MDA-MB-468 breast
# [7] = tested on: NCI-H322M lung
# [8] = tested on: IGROV1 ovarian
# [9] = tested on: UACC-62 melanoma
# [10] = tested on: ACHN renal
# [11] = tested on: DU-145 prostate
# [12] = tested on: SK-MEL-2 melanoma
# [13] = tested on: UACC-257 melanoma
smiles,measurement,setting,value
CCNC(=O)c1cc2c(-c3cc(C(C)(C)O)ccc3Oc3c(C)cc(F)cc3C)cn(C)c(=O)c2[nH]1,GI50,[1],2.23 µM
same,TGI,[1],13 µM
same,GI50,[2],1.6 µM
same,TGI,[2],5.23 µM
same,GI50,[3],1.51 µM
same,TGI,[3],12 µM
same,GI50,[4],2.54 µM
same,TGI,[4],10.9 µM
same,GI50,[5],0.0125 µM
same,TGI,[5],0.693 µM
same,GI50,[6],0.358 µM
same,TGI,[6],2.08 µM
same,GI50,[7],1.61 µM
same,TGI,[7],11.9 µM
same,GI50,[8],0.508 µM
same,TGI,[8],2.29 µM
same,GI50,[9],0.152 µM
same,TGI,[9],4.06 µM
same,GI50,[10],3.23 µM
same,TGI,[10],15.1 µM
same,GI50,[11],2.52 µM
same,TGI,[11],14.7 µM
same,GI50,[12],0.139 µM
same,TGI,[12],2.85 µM
same,GI50,[13],0.748 µM
same,TGI,[13],10.4 µM
